Test [1] concerns Acanthocheilonema viteae. In words: Antifilarial activity against Acanthocheilonema viteae infected Mastomys coucha assessed as sterilization of female worms at 50 mg/kg, ip for 5 days relative to control. Type of test: functional, organism-based. Further details: dose 50 mg/kg.
Test [2] has as its system Acanthocheilonema viteae. In words: Antifilarial activity against Acanthocheilonema viteae infected Mastomys coucha assessed as microfilariacidal activity at 50 mg/kg, ip for 5 days relative to control. Type of test: functional.
For test [3], the system named is Acanthocheilonema viteae. Description: Antifilarial activity against Acanthocheilonema viteae infected Mastomys coucha assessed as macrofilariacidal activity at 50 mg/kg, ip for 5 days relative to control. The class given is functional.
In test [4] the test system is Acanthocheilonema viteae. In words: Antifilarial activity against Acanthocheilonema viteae infected Mastomys coucha assessed as macrofilariacidal activity at 200 mg/kg, ip for 5 days relative to control. The following applies: route intraperitoneal. The class given is functional.
Test [5] concerns Acanthocheilonema viteae. Description: Antifilarial activity against Acanthocheilonema viteae infected Mastomys coucha assessed as sterilization of female worms at 100 mg/kg, po for 5 days relative to control. The class given is functional.

Calls of active or inactive are those of the source. No cut-off for these calls is given here.

For `CC(=O)OC1CCCCC1N1CCCCC1` (stereo not given), the result in test [1], in test [2] and in test [3] was inactive.
As for `CC(=O)OC(C)Nc1ccco1` (stereo not given), the outcome in test [1], in test [2] and in test [3] was inactive.
With `OC1CCCCC1N1CCCCC1` (stereo not given), the outcome in test [1] and in test [2] was inactive. In addition, the Activity in test [3] (route intraperitoneal) came out at 88.9%.
Regarding `CC(=O)OC1CCCCC1N1CCN(C)CC1` (stereo not given), the outcome in test [1], in test [2] and in test [3] was inactive.
On to `CC(=O)OC(C)N1CCC(Cc2ccccc2)CC1` (stereo not given), for which the result in test [1] and in test [2] was inactive. In addition, the Activity in test [4] is listed as 83.4%.
Regarding `CC(O)Nc1ccco1` (stereo not given), the Activity was 82% in test [5] and 81.3% in test [4]. For the same molecule, in test [2], the result was inactive.
`OC1CCCCC1N1CCOCC1` (stereo not given): the outcome in test [1], in test [2] and in test [3] was inactive.
In the case of `CCN(CC)C(=O)N1CCN(C)CC1` [DIETHYLCARBAMAZINE], the result in test [1] and in test [3] was inactive. In test [2] (route intraperitoneal), the Activity is listed as 90%.
Regarding `CC(=O)OC1CCCCC1Nc1ccccc1` (stereo not given), the outcome in test [1], in test [2] and in test [3] was inactive.
Turning to `CC(O)N1CCC(Cc2ccccc2)CC1` (stereo not given), the result in test [1], in test [2] and in test [3] was inactive.
On to `CC(=O)OC1CCCCC1N1CCC(Cc2ccccc2)CC1` (stereo not given), for which the result in test [1], in test [2] and in test [3] was inactive.
As for `OC1CCCCC1N1CCC(Cc2ccccc2)CC1` (stereo not given), the result in test [1], in test [2] and in test [3] was inactive.
Turning to `CC(=O)OC(C)N1CCCCC1C` (stereo not given), the result in test [1], in test [2] and in test [3] was inactive.
As for `CC(O)N1CCCCC1C` (stereo not given), the result in test [1], in test [2] and in test [3] was inactive.
For the molecule `CN1CCN(C2CCCCC2O)CC1` (stereo not given), the outcome in test [1] and in test [2] was inactive.
For the molecule `CC(=O)OC1CCCCC1N1CCOCC1` (stereo not given), the result in test [1], in test [2] and in test [3] was inactive.
In the case of `OC1CCCCC1Nc1ccccc1` (stereo not given), the outcome in test [1], in test [2] and in test [3] was inactive.

The values above are taken from ChEMBL document CHEMBL3046850, “In vivo antifilarial activity of some cyclic and acylic alcohols” (2011).
